{"source": "patent US20260193271A1", "about": "“PAN-KRAS INHIBITOR COMPOUND” (ADLAI NORTYE BIOPHARMA CO., LTD., priority 2022, published 2026)", "key": {"SW480 (G12V)": {"system": "SW480 (G12V)", "test": "In vitro cell proliferation inhibition test (CellTiter-Glo), SW480", "format": "cell-based", "settings": "Homo sapiens, SW480 colon cell line, KRAS (p.G12V), 72 h co-incubation", "from_the_text": "(§1) Test Example 1: In Vitro Cell Proliferation Inhibition Test\n(§2) Due to the diversity of RAS mutations and in order to evaluate the activity of compounds in different RAS mutation cell lines, we selected KRAS^WT, KRAS^G12C, KRAS^G12D, KRAS^G12V and BRAF mutation cell lines (see the table below) for in vitro activity evaluation and screening of compounds.\n(§3) Protocol: CellTiter-Glo® Cell Luminescent Viability Assay (Promega)\n(§4) According to the doubling time of different cell lines, different numbers of cells (1000-5000 cells/well) were seeded in 96-well plates containing 180 μl of corresponding culture medium and cultured overnight in a cell culture incubator at 37° C. with 5% CO2. On the second day, the test compound was pre-diluted 3-fold with culture medium, with the highest concentration being 100 μM, for a total of 10 concentration gradients; then 20 μl of culture medium containing different concentrations of the compound was added to the cells in the 96-well plate to ensure that the final concentration of the compound was up to 10 μM, with 10 concentration gradients of 3-fold dilution. After the cells and compounds were co-incubated for 72 h, the 96-well plate was removed from the incubator and equilibrated at room temperature for 30 min. Then, 25 μl of CellTiter-Glo® Reagent was added to each well and mixed thoroughly. The mixture was incubated at room temperature for 10 min, and then 100 μl of the sample was transferred to a white 96-well plate (OptiPlate™-96, PerkinElmer). The […] signal value was read using a multi-function microplate reader (SpectraMax® i3x, Molecular devices). The signal values were then standardized, and the curve was fitted using a four-parameter regression equation to calculate the half maximal inhibitory concentration (IC50) of the compound on the cell line."}, "AsPC-1 (G12D)": {"system": "AsPC-1 (G12D)", "test": "In vitro cell proliferation inhibition test (CellTiter-Glo), AsPC-1", "format": "cell-based", "settings": "KRAS (p.G12D), 72 h co-incubation", "from_the_text": "as §1, §2, §3, §4"}, "[1]": {"settings": "Homo sapiens, ASPC1, AsPC-1 pancreas cell line"}}, "data": [{"smiles": "CCn1c(-c2cc(-c3ccc(CN4CC[C@@H](S(C)(=O)=O)C4)cn3)cnc2[C@H](C)OC)c2c3cc(ccc31)-c1csc(n1)C[C@H](NC(=O)[C@H]1C[C@@H]1C)C(=O)N1CCC[C@H](N1)C(=O)OCC(C)(C)C2", "note": "(atropisomer, axis not shown) [Compound 50, (1S,2S)-N-((6^3S,4S,Z)-1^1-ethyl-1^2-(6′-((S)-1-methoxyethyl)-5-(((R)-3-(methylsulfonyl)pyrrolidin-1-yl)methyl)-[2,3′-bipyridin]-5′-yl)-10,10-dimethyl-5,7-dioxo-6^1,6^2,6^3,6^4,6^5,6^6-hexahydro-1^1H-8-oxa-2(4,2)-thiazola-1(5,3)-indola-6(1,3)-pyridazinacycloundecaphane-4-yl)-2-methylcyclopropane-1-carboxamide]", "values": [{"measurement": "IC50", "setting": "SW480 (G12V)", "value": 7.8, "unit": "nM"}, {"measurement": "IC50", "setting": "AsPC-1 (G12D); [1]", "value": 8.5, "unit": "nM"}]}, {"smiles": "CCn1c(-c2cc(-c3cnc(OC4CCN(C)CC4)nc3)cnc2[C@H](C)OC)c2c3cc(ccc31)-c1csc(n1)C[C@H](NC(=O)[C@H]1C[C@@H]1C)C(=O)N1CCC[C@H](N1)C(=O)OCC(C)(C)C2", "note": "(atropisomer, axis not shown) [Compound 60, (1S,2S)-N-((6^3S,4S,Z)-1^1-ethyl-1^2-(2-((S)-1-methoxyethyl)-5-(2-((1-methylpiperidin-4-yl)oxy)pyrimidin-5-yl)pyridin-3-yl)-10,10-dimethyl-5,7-dioxo-6^1,6^2,6^3,6^4,6^5,6^6-hexahydro-1^1H-8-oxa-2(4,2)-thiazola-1(5,3)-indola-6(1,3)-pyridazinacycloundecaphane-4-yl)-2-methylcyclopropane-1-carboxamide]", "values": [{"measurement": "IC50", "setting": "SW480 (G12V)", "value": 12, "unit": "nM"}, {"measurement": "IC50", "setting": "AsPC-1 (G12D); [1]", "value": 1.6, "unit": "nM"}]}, {"smiles": "CCn1c(-c2cc(-c3ncc(CN4CCS(=O)(=O)CC4)cn3)cnc2[C@H](C)OC)c2c3cc(ccc31)-c1csc(n1)C[C@H](NC(=O)[C@H]1C[C@@H]1C)C(=O)N1CCC[C@H](N1)C(=O)OCC(C)(C)C2", "note": "(atropisomer, axis not shown) [Compound 51, (1S,2S)-N-((6^3S,4S,Z)-1^2-(5-(5-((1,1-dioxidothiomorpholino)methyl)pyrimidin-2-yl)-2-((S)-1-methoxyethyl)pyridin-3-yl)-1^1-ethyl-10,10-dimethyl-5,7-dioxo-6^1,6^2,6^3,6^4,6^5,6^6-hexahydro-1^1H-8-oxa-2(4,2)-thiazola-1(5,3)-indola-6(1,3)-pyridazinacycloundecaphane-4-yl)-2-methylcyclopropane-1-carboxamide]", "values": [{"measurement": "IC50", "setting": "SW480 (G12V)", "value": 1.2, "unit": "nM"}, {"measurement": "IC50", "setting": "AsPC-1 (G12D); [1]", "value": 0.9, "unit": "nM"}]}, {"smiles": "CCn1c(-c2cc(-c3cncc(CN4CCS(=O)(=O)CC4)c3)cnc2[C@H](C)OC)c2c3cc(ccc31)-c1csc(n1)C[C@H](NC(=O)[C@H]1[C@H](C)[C@@H]1C)C(=O)N1CCC[C@H](N1)C(=O)OCC(C)(C)C2", "note": "(atropisomer, axis not shown) [Compound 37, (1r,2R,3S)-N-((6^3S,4S,Z)-12-(5′-((1,1-dioxidothiomorpholino)methyl)-6-((S)-1-methoxyethyl)-[3,3′-bipyridin]-5-yl)-1^1-ethyl-10,10-dimethyl-5,7-dioxo-6^1,6^2,6^3,6^4,6^5,6^6-hexahydro-1^1H-8-oxa-2(4,2)-thiazola-1(5,3)-indola-6(1,3)-pyridazinacycloundecaphane-4-yl)-2,3-dimethylcyclopropane-1-carboxamide]", "values": [{"measurement": "IC50", "setting": "SW480 (G12V)", "value": 1.8, "unit": "nM"}, {"measurement": "IC50", "setting": "AsPC-1 (G12D); [1]", "value": 0.9, "unit": "nM"}]}, {"smiles": "CCn1c(-c2cc(-c3cnc4c(c3)CN(C)C4)cnc2[C@H](C)OC)c2c3cc(ccc31)-c1csc(n1)C[C@H](NC(=O)[C@H]1C[C@@H]1C)C(=O)N1CCC[C@H](N1)C(=O)OCC(C)(C)C2", "note": "(atropisomer, axis not shown) [Compound 45, (1S,2S)-N-((6^3S,4S,Z)-1^1-ethyl-1^2-(2-((S)-1-methoxyethyl)-5-(6-methyl-6,7-dihydro-5H-pyrrolo[3,4-b]pyridin-3-yl)pyridin-3-yl)-10,10-dimethyl-5,7-dioxo-6^1,6^2,6^3,6^4,6^5,6^6-hexahydro-1^1H-8-oxa-2(4,2)-thiazola-1(5,3)-indola-6(1,3)-pyridazinacycloundecaphane-4-yl)-2-methylcyclopropane-1-carboxamide]", "values": [{"measurement": "IC50", "setting": "SW480 (G12V)", "value": 6.2, "unit": "nM"}, {"measurement": "IC50", "setting": "AsPC-1 (G12D); [1]", "value": 5.3, "unit": "nM"}]}, {"smiles": "CCn1c(-c2cc(-c3cnc(N(C)C)nc3)cnc2[C@H](C)OC)c2c3cc(ccc31)-c1csc(n1)C[C@H](NC(=O)[C@H]1C[C@@H]1C)C(=O)N1CCC[C@H](N1)C(=O)OCC(C)(C)C2", "note": "(atropisomer, axis not shown) [Compound 59, (1S,2S)-N-((6^3S,4S,Z)-1^2-(5-(2-(dimethylamino)pyrimidin-5-yl)-2-((S)-1-methoxyethyl)pyridin-3-yl)-1^1-ethyl-10,10-dimethyl-5,7-dioxo-6^1,6^2,6^3,6^4,6^5,6^6-hexahydro-1^1H-8-oxa-2(4,2)-thiazola-1(5,3)-indola-6(1,3)-pyridazinacycloundecaphane-4-yl)-2-methylcyclopropane-1-carboxamide]", "values": [{"measurement": "IC50", "setting": "SW480 (G12V)", "value": 6.2, "unit": "nM"}, {"measurement": "IC50", "setting": "AsPC-1 (G12D); [1]", "value": 3, "unit": "nM"}]}, {"smiles": "CCn1c(-c2cc(-c3cnn(C4CCN(C)CC4)c3)cnc2[C@H](C)OC)c2c3cc(ccc31)-c1csc(n1)C[C@H](NC(=O)[C@H]1C[C@@H]1C)C(=O)N1CCC[C@H](N1)C(=O)OCC(C)(C)C2", "note": "(atropisomer, axis not shown) [Compound 63, (1S,2S)-N-((6^3S,4S,Z)-1^1-ethyl-1^2-(2-((S)-1-methoxyethyl)-5-(1-(1-methylpiperidin-4-yl)-1H-pyrazol-4-yl)pyridin-3-yl)-10,10-dimethyl-5,7-dioxo-6^1,6^2,6^3,6^4,6^5,6^6-hexahydro-1^1H-8-oxa-2(4,2)-thiazola-1(5,3)-indola-6(1,3)-pyridazinacycloundecaphane-4-yl)-2-methylcyclopropane-1-carboxamide]", "values": [{"measurement": "IC50", "setting": "SW480 (G12V)", "value": 71, "unit": "nM"}, {"measurement": "IC50", "setting": "AsPC-1 (G12D); [1]", "value": 48, "unit": "nM"}]}, {"smiles": "CCn1c(-c2cc(-c3cccc(CN(C)C)c3)cnc2[C@H](C)OC)c2c3cc(ccc31)-c1csc(n1)C[C@H](NC(=O)[C@H]1[C@H](C)[C@@H]1C)C(=O)N1CCC[C@H](N1)C(=O)OCC(C)(C)C2", "note": "[Compound 4′, (1r,2R,3S)-N-((6^3S,4S,Z)-1^2-(5-(3-((dimethylamino)methyl)phenyl)-2-((S)-1-methoxyethyl)pyridin-3-yl)-1^1-ethyl-10,10-dimethyl-5,7-dioxo-6^1,6^2,6^3,6^4,6^5,6^6-hexahydro-1^1H-8-oxa-2(4,2)-thiazola-1(5,3)-indola-6(1,3)-pyridazinacycloundecaphane-4-yl)-2,3-dimethylcyclopropane-1-carboxamide]", "values": [{"measurement": "IC50", "setting": "AsPC-1 (G12D); AsPC-1 pancreas cell line", "value": 646, "unit": "nM"}]}, {"smiles": "CCn1c(-c2cc(-c3ccc(CN4CCC(F)(F)CC4)cc3)cnc2C(C)OC)c2c3cc(ccc31)-c1csc(n1)CC(NC(=O)C1CC1C)C(=O)N1CCCC(N1)C(=O)OCC(C)(C)C2", "note": "[Compound 7′, (1S,2S)-N-((6^3S,4S,Z)-1^2-(5-(4-((4,4-difluoropiperidin-1-yl)methyl)phenyl)-2-((S)-1-methoxyethyl)pyridin-3-yl)-1^1-ethyl-10,10-dimethyl-5,7-dioxo-6^1,6^2,6^3,6^4,6^5,6^6-hexahydro-1^1H-8-oxa-2(4,2)-thiazola-1(5,3)-indola-6(1,3)-pyridazinacycloundecaphane-4-yl)-2-methylcyclopropane-1-carboxamide]", "values": [{"measurement": "IC50", "setting": "AsPC-1 (G12D); AsPC-1 pancreas cell line", "value": "> 10000", "unit": "nM"}]}, {"smiles": "CCn1c(-c2cc(-c3cc(C4CN(C)CCO4)on3)cnc2C(C)OC)c2c3cc(ccc31)-c1csc(n1)CC(NC(=O)C1C(C)C1C)C(=O)N1CCCC(N1)C(=O)OCC(C)(C)C2", "note": "[Compound 26′, (1r,2R,3S)-N-((6^3S,4S,Z)-1^1-ethyl-1^2-(2-((S)-1-methoxyethyl)-5-(5-((R)-4-methylmorpholin-2-yl)isoxazol-3-yl)pyridin-3-yl)-10,10-dimethyl-5,7-dioxo-6^1,6^2,6^3,6^4,6^5,6^6-hexahydro-1^1H-8-oxa-2(4,2)-thiazola-1(5,3)-indola-6(1,3)-pyridazinacycloundecaphane-4-yl)-2,3-dimethylcyclopropane-1-carboxamide]", "values": [{"measurement": "IC50", "setting": "AsPC-1 (G12D); AsPC-1 pancreas cell line", "value": 13, "unit": "nM"}]}, {"smiles": "CCn1c(-c2cc(-c3ccc(CN4CCN(C)CC4)cc3)cnc2[C@H](C)OC)c2c3cc(ccc31)-c1csc(n1)C[C@H](NC(=O)[C@H]1C[C@@H]1C)C(=O)N1CCC[C@H](N1)C(=O)OCC(C)(C)C2", "note": "[Compound 8′, (1S,2S)-N-((6^3S,4S,Z)-1^1-ethyl-1^2-(2-((S)-1-methoxyethyl)-5-(4-((4-methylpiperazin-1-yl)methyl)phenyl)pyridin-3-yl)-10,10-dimethyl-5,7-dioxo-6^1,6^2,6^3,6^4,6^5,6^6-hexahydro-1^1H-8-oxa-2(4,2)-thiazola-1(5,3)-indola-6(1,3)-pyridazinacycloundecaphane-4-yl)-2-methylcyclopropane-1-carboxamide]", "values": [{"measurement": "IC50", "setting": "AsPC-1 (G12D); AsPC-1 pancreas cell line", "value": 236, "unit": "nM"}]}]}
